In patent US5459152A, “Platelet activating factor antagonists” (Abbott Laboratories, priority 1993, dated 1995):

The molecules below were run against T1, PAF receptor (Oryctolagus cuniculus, UniProt G1TEI7) (assay: PAF receptor binding assay ([3H]C18-PAF, rabbit platelet membranes)). Conditions: inhibition of specific binding of 0.6 nM [3H]C18-PAF to rabbit platelet membranes, 60 min, room temperature; Ki calculated from IC50 by Cheng and Prusoff; read-out: PAF Receptor Binding Activity K1.
T1 construct: platelet membranes where prepared by centrifugation and washing; tissue Pel-Freez (Rogers, AR) (whole rabbit blood); host or cells: rabbit platelet membranes
T1 sequence (G1TEI7 1-342): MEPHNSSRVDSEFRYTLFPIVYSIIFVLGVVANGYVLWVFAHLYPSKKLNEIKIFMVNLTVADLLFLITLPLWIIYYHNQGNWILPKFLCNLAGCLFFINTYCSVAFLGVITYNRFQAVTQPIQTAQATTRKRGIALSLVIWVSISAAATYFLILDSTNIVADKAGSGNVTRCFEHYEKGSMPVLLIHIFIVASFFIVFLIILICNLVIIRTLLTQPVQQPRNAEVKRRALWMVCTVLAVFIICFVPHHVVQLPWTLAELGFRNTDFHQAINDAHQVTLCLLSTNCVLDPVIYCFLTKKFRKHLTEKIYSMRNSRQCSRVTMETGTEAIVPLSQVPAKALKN
Experimental: The ability of representative compounds of the present invention to inhibit PAF activity was determined in an in vitro test using the following method.
Citrated whole rabbit blood was obtained from Pel-Freez (Rogers, AR). Rabbit platelets where prepared by centrifugation and washing. The platelets where lysed by freeze-thawing and sonication; platelet membranes where prepared by centrifugation and washing. Final membrane preparations where stored frozen in 10 mM Tris/5 mM MgCl2 /2 mM EDTA (TME buffer, pH 7.0) with 0.25 M sucrose added for membrane stabilization.
The final volume of the assay was 100 μl. The assay was conducted in Millititre-GV™ (Millipore Corp.) filtration plates; incubation time was for 60 minutes at room temperature (22°-23° C.). "Specific binding" was operationally defined as the arithmetic difference between "total binding" of 0.6 nM [^3 H]C18 -PAF (in the absence of added PAF) and "nonspecific binding" (in the presence of 1 μM PAF). After the prescribed incubation, platelet membranes where filtered under vacuum and washed with 1 millilitre of "binding buffer". The filters was dried and removed. The bound radioactivity was quantitated with a Berthold TLC-Linear Analyzer model LB2842.
Experiments where repeated at least once.
“3-[Pyridin-3-yl)-7-(6-pyrimid-2-ylindol-3-ylcarbonyl)-1H,3H-pyrrolo[1,2-c]thiazole [Example 74]” was tested, and the Ki was 84 nM.
`COc1ccc(-c2ccc3c(C(=O)c4ccn5c4CSC5c4cccnc4)cn(C(=O)N(C)C)c3c2)cc1` (centres unmarked) [Example 40, 3-(Pyridin-3-yl)-7-[1-N,N-dimethylcarbamoyl-6-(4-methoxyphenyl)indol-3-ylcarbonyl]-1H,3H-pyrrolo[1,2-c]thiazole] showed a Ki of 26 nM.

Same assay, conditions: read-out: PAF Receptor Binding Activity K1
Work on `CN(C)S(=O)(=O)n1cc(C(=O)c2ccn3c2CSC3c2ccc[n+]([O-])c2)c2ccc(-c3ccc(F)cc3)cc21` (centres unmarked) [Example 60, 3-(1-Oxide-pyridin-3-yl)-7-[1-N,N-dimethylsulfamyl-6-(4-fluorophenyl)indol-3-ylcarbonyl]-1H,3H-pyrrolo[1,2-c]thiazole] yielded a Ki of 210 nM.
Molecule `O=C(c1ccn2c1CSC2c1cccnc1)c1c[nH]c2cc(-c3cccnc3)ccc12` (centres unmarked) [Example 41] has a Ki of 2000 nM.
Molecule `O=C(c1ccn2c1CSC2c1cccnc1)c1cn(S(=O)(=O)c2ccccc2)c2cc(-c3ccc(F)cc3)ccc12` (centres unmarked) [Example 61, 3-(Pyridin-3-yl)-7-[1-phenylsulfonyl-6-(4-fluorophenyl)indol-3-ylcarbonyl]-1H,3H-pyrrolo[1,2-c]thiazole] has a Ki of 1100 nM.
`O=C(c1ccn2c1COC2c1cccnc1)c1c[nH]c2ccccc12` (centres unmarked) [Example 15, 3-(Pyridin-3-yl)-7-(indol-3-ylcarbonyl)-1H,3H-pyrrolo[1,2-c]oxazole] gave a Ki of 5600 nM.
`COc1ccc(-c2ccc3c(C(=O)c4ccn5c4C(C)(C)SC5c4cccnc4)cn(C(=O)N(C)C)c3c2)cc1` (centres unmarked) [Example 26, 1,1-Dimethyl-3-Dimethyl-3-(pyridin-3-yl)-7-[1-N,N-dimethylcarbamoyl-6-(4-methoxyphenyl)indol-3-ylcarbonyl]-1H,3H-pyrrolo[1,2-c]thiazole] gave a Ki of 55 nM.
`CN(C)CCN(C)C(=O)n1cc(C(=O)c2ccn3c2CSC3c2cccnc2)c2ccc(-c3ccc(F)cc3)cc21` (centres unmarked) [Example 84, 3-(Pyridin-3-yl)-7-[1-(N-methyl-N-(dimethylaminoethyl))carbamoyl-6-(4-fluorophenyl)indol-3-ylcarbonyl]-1H,3H-pyrrolo[1,2-c]thiazole] was tested, and the Ki was 6.9 nM.
`CN(C)C(=O)n1cc(C(=O)c2ccn3c2CSC3c2ccc[n+](C)c2)c2ccc(-c3ccccc3)cc21` (centres unmarked) [Example 33, 3-(1-methylpyridin-3-yl)-7-(1-N,N-dimethylcarbamoyl-6-phenylindol-3-ylcarbonyl)-1H,3H-pyrrolo[1,2-c]thiazole] was tested, and the Ki was 2800 nM.
`CN(C)C(=O)Cn1cc(C(=O)c2ccn3c2CSC3c2cccnc2)c2ccc(-c3ccc(F)cc3)cc21` (centres unmarked) [Example 53, 3-(Pyridin-3-yl)-7-[1-(2-N,N-dimethylcarbamoylmethyl)-6-(4-fluorophenyl)indol-3-ylcarbonyl]-1H,3H-pyrrolo[1,2-c]thiazole] gave a Ki of 0.7 nM.
`COc1ccc(-c2ccc3c(C(=O)c4ccn5c4CSC5c4cccnc4)c[nH]c3c2)cc1` (centres unmarked) [Example 38, 3-(Pyridin-3-yl)-7-[6-(4-methoxyphenyl)indol-3-yl]carbonyl-1H,3H-pyrrolo[1,2-c]thiazole] was tested, and the Ki was 1000 nM.
`CN(C)C(=O)Cn1cc(C(=O)c2ccn3c2CSC3c2ccc[n+]([O-])c2)c2ccc(-c3ccc(F)cc3)cc21` (centres unmarked) [Example 75, 3-(1-Oxide-pyridin-3-yl)-7-[1-(2-N,N-dimethylcarbamoylmethyl)-6-(4-fluorophenyl)indol-3-ylcarbonyl]-1H,3H-pyrrolo[1,2-c]thiazole] gave a Ki of 7.5 nM.
`CN(C(=O)n1cc(C(=O)c2ccn3c2CSC3c2cccnc2)c2ccc(OCc3ccccc3)cc21)c1ccccc1` (centres unmarked) [Example 20, 3-(Pyridin-3-yl)-7-(1-N-methyl-N-phenylcarbamoyl-6-phenylmethoxyindol-3-ylcarbonyl)-1H,3H-pyrrolo[1,2-c]thiazole] gave a Ki of 180 nM.
For `CN(C)C(=O)n1cc(C(=O)c2ccn3c2CSC3c2cccnc2)c2ccc(Cl)cc21` (centres unmarked) [Example 65, 3-(Pyridin-3-yl)-7-(1-N,N-dimethylcarbamoyl-6-chloroindol-3-ylcarbonyl)-1H,3H-pyrrolo[1,2-c]thiazole], the Ki was 89 nM.
In the case of `CNC(=O)n1cc(C(=O)c2ccn3c2CSC3c2cccnc2)c2ccc(-c3ccccc3)cc21` (centres unmarked) [Example 30, 3-(Pyridin-3-yl)-7-(1-N-methylcarbamoyl-6-phenylindol-3-ylcarbonyl)-1H,3H-pyrrolo[1,2-c]thiazole], the Ki is reported as 135 nM.
`CN(C)C(=O)n1cc(C(=O)c2ccn3c2C(C)(C)SC3c2cccnc2)c2ccc(-c3ccccc3)cc21` (centres unmarked) [Example 24, 1,1-Dimethyl-3-(pyridin-3-yl)-7-(1-N,N-dimethylcarbamoyl-6-phenylindol-3-ylcarbonyl)-1H,3H-pyrrolo[1,2-c]thiazole] gave a Ki of 51 nM.
Work on `CN(C)C(=O)n1cc(C(=O)c2ccn3c2CSC3c2cccnc2)c2ccc(-c3cccs3)cc21` (centres unmarked) [Example 101, 3-(Pyridin-3-yl)-7-(1-N,N-dimethylcarbamoyl-6-thiophen-2-ylindol-3-ylcarbonyl)-1H,3H-pyrrolo[1,2-c]thiazole] yielded a Ki of 0.95 nM.
In the case of `CN(C)C(=O)n1cc(C(=O)c2ccn3c2C(C)(C)SC3c2cccnc2)c2ccccc21` (centres unmarked) [Example 19, 1,1-Dimethyl-3-(pyridin-3-yl)-7-(1-N,N-dimethylcarbamoyl-indol-3-ylcarbonyl)-1H,3H-pyrrolo[1,2-c]thiazole], the Ki is reported as 100 nM.
With `CN(C)C(=O)n1cc(C(=O)c2ccn3c2CSC3c2cccnc2)c2ccc(-c3cnc(N)nc3)cc21` (centres unmarked) [Example 89] the Ki was 280 nM.
`O=C(c1ccn2c1CSC2c1cccnc1)c1c[nH]c2ccc(OCc3ccccc3)cc12` (centres unmarked) [Example 3, 3-(Pyridin-3-yl)-7-(5-phenylmethoxyindol-3-yl)carbonyl-1H,3H-pyrrolo[1,2-c]thiazole] was tested, and the Ki was 180 nM.
Molecule `NS(=O)(=O)CCn1cc(C(=O)c2ccn3c2CSC3c2ccc[n+]([O-])c2)c2ccc(-c3ccc(F)cc3)cc21` (centres unmarked) [Example 79, 3-(3-Oxide-pyridin-3-yl)-7-[1-(2-aminosulfonylethyl)-6-(4-fluorophenyl)indol-3-ylcarbonyl]-1H,3H-pyrrolo[1,2-c]thiazole] has a Ki of 18 nM.
With `CNC(=O)n1cc(C(=O)c2ccn3c2CSC3c2cccnc2)c2ccc(OCc3ccccc3)cc21` (centres unmarked) [Example 22, 3-(Pyridin-3-yl)-7-(1-N-methylcarbamoyl-6-phenylmethoxyindol-3-ylcarbonyl)-1H,3H-pyrrolo[1,2-c]thiazole] the Ki was 9 nM.
`NNC(=O)n1cc(C(=O)c2ccn3c2CSC3c2cccnc2)c2ccc(-c3ccc(F)cc3)cc21` (centres unmarked) [Example 69, 3-(Pyridin-3-yl)-7-[1-hydrazinocarbonyl-6-(4-fluorophenyl)indol-3-ylcarbonyl]-1H,3H-pyrrolo[1,2-c]thiazole] showed a Ki of 25 nM.
`CN(C)C(=O)n1cc(C(=O)c2ccn3c2CSC3c2ccc[n+]([O-])c2)c2ccccc21` (centres unmarked) [Example 44, 3-(1-Oxide-pyridin-3-yl)-7-(1-N,N-dimethylcarbamoylindol-3-ylcarbonyl)-1H,3H-pyrrolo[1,2-c]thiazole] gave a Ki of 40 nM.
For `CN(C)C(=O)n1cc(C(=O)c2ccn3c2C[S+]([O-])C3c2cccnc2)c2ccc(-c3ccccc3)cc21` (centres unmarked) [Example 23, 2-Oxide-3-(pyridin-3-yl)-7-(1-N,N-dimethylcarbamoyl-6-phenyllindol-3-ylcarbonyl)-1H,3H-pyrrolo[1,2-c]thiazole], the Ki was 95 nM.
`CN(CO)C(=O)Cn1cc(C(=O)c2ccn3c2CSC3c2cccnc2)c2ccc(-c3ccc(F)cc3)cc21` (centres unmarked) [Example 93] was tested, and the Ki was 0.8 nM.
`CN(C)C(=O)n1cc(C(=O)c2ccn3c2CSC3c2ccc[n+]([O-])c2)c2ccc(Cl)cc21` (centres unmarked) [Example 66, 3-(1-Oxide-Pyridin-3-yl)-7-(1-N,N-dimethylcarbamoyl-6-chloroindol-3-ylcarbonyl)-1H,3H-pyrrolo[1,2-c]thiazole] was tested, and the Ki was 38 nM.
`CCS(=O)(=O)n1cc(C(=O)c2ccn3c2CSC3c2cccnc2)c2ccc(-c3ccc(F)cc3)cc21` (centres unmarked) [Example 71, 3-(Pyridin-3-yl)-7-[1-ethanesulfonyl-6-[4-fluorophenyl)indol-3-ylcarbonyl]-1H,3H-pyrrolo[1,2-c]thiazole] showed a Ki of 244 nM.
For `O=C(c1ccn2c1CSC2c1cccnc1)c1cn(C(=O)Oc2ccccc2)c2cc(OCc3ccccc3)ccc12` (centres unmarked) [Example 27, 3-[Pyridin-3-yl)-7-(1-carbophenoxy-6-phenylmethoxyindol-3-ylcarbonyl)-1H,3H-pyrrolo[1,2-c]thiazole], the Ki was 200 nM.
With `CC1(C)SC(c2cccnc2)n2ccc(C(=O)c3c[nH]c4cc(-c5ccc(F)cc5)ccc34)c21` (centres unmarked) [Example 36, 1,1-Dimethyl-3-(pyridin-3-yl)-7-[6-(4-fluorophenyl)indol-3-ylcarbonyl]-1H,3H-pyrrolo[1,2-c]thiazole] the Ki was 1100 nM.
With `O=C(c1ccn2c1CSC2c1cccnc1)c1cn(C(=O)NCCc2c[nH]cn2)c2cc(-c3ccc(F)cc3)ccc12` (centres unmarked) [Example 105, 3-(Pyridin-3-yl)-7-[1-N-(2-(4-imidazolyl)ethyl)carbamoyl-6-(4-fluorophenyl)indol-3-ylcarbonyl]-1H,3H-pyrrolo[1,2-c]thiazole] the Ki was 4.3 nM.
`CC(C)(C)OC(=O)n1cc(C(=O)c2ccn3c2C[S+]([O-])C3c2cccnc2)c2ccccc21` (centres unmarked) [Example 13, 2-Oxide-3-(pyridin-3-yl)-7-(1-tert-butyloxycarbonylindol-3-ylcarbonyl)-1H,3H-pyrrolo[1,2-c]thiazole] was tested, and the Ki was 2200 nM.
